Like-named read-outs stand apart in the source and are kept apart here.
Legend:
[1] = molecular target: T1, PfCRT^3D7 (Plasmodium falciparum, UniProt Q8IBZ9); test: cell-based; type: cell-based; details: total [3H]CQ transport; for Uptake of [3H]CQ (% PfCRT3D7 control), cis-inhibition: PfCRT3D7 oocytes, normalised to the oocyte type control; for Uptake of [3H]CQ (% PfCRTDd2 control), cis-inhibition, PfCRT3D7: mean ± SEM, SEM
How it was run: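 Transport runs from the acidic bath into the cytosol, analogous to PfCRT-mediated efflux out of the vacuole. Non-expressing oocytes act as background.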

[2] = test system: PfCRT; test: Test of solutes as potential co-substrates for influx of VF-6 via PfCRT into the oocyte; type: cell-based, Plasmodium falciparum; design: key: X: Compounds that have been tested as potential co-substrates but are not required for influx of VF-6 via PfCRT into the oocyte; details: X = tested
[3] = test system: non-expressing oocytes; type: cell-based, Xenopus laevis; details: total [3H]CQ transport; for Uptake of [3H]CQ (% non-expressing oocyte control), trans-stimulation: non-expressing oocytes, normalised to the oocyte type control; for Uptake of [3H]CQ (% PfCRTDd2 control), trans-stimulation, non-expressing oocytes: mean ± SEM, SEM
How it was run: (§1)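 Oocytes (ten per treatment, ≥4 independent frogs/days) were preloaded by injecting VF-6 in 25 nL ND96 at pH 5.0, 5.5, 6.0 or 7.0, or Na^+-free choline buffer, then uptake run 1.5 h, 27.5 °C, ND96 pH 5.5 by default. Internal concentrations assumed ~400 nL oocyte volume.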

[4] = molecular target: PfCRT^Dd2 (Plasmodium falciparum, UniProt Q9N623, A220S/I356T/K76T/M74I/N326S/N75E/Q271E/R371I); test: cell-based; type: cell-based; details: for Uptake of [3H]CQ (% PfCRTDd2 control), trans-stimulation / PfCRT-mediated [3H]CQ transport, trans-stimulation (% PfCRTDd2 control): PfCRTDd2 oocytes; for Uptake of [3H]CQ (% PfCRTDd2 control), trans-stimulation / Uptake of [3H]CQ (% PfCRTDd2 control), trans-stimulation, PfCRTDd2: total [3H]CQ transport; for Uptake of [3H]CQ (% PfCRTDd2 control), trans-stimulation: normalised to the oocyte type control; for PfCRT-mediated [3H]CQ transport, trans-stimulation (% PfCRTDd2 control): normalised to oocyte type control; for Uptake of [3H]CQ (% PfCRTDd2 control), trans-stimulation, PfCRTDd2 / [3H]CQ transport (% PfCRTDd2 control), trans-stimulation, PfCRTDd2: mean ± SEM, SEM; for [3H]CQ transport (% PfCRTDd2 control), trans-stimulation, PfCRTDd2: PfCRT-mediated component (background subtracted)
How it was run: as §1

[5] = molecular target: T2, PfNT1 (Plasmodium falciparum, UniProt Q8IDM6); test: cell-based; type: cell-based; details: total [3H]CQ transport; for Uptake of [3H]CQ (% PfNT1 control), trans-stimulation: PfNT1 oocytes, normalised to the oocyte type control; for Uptake of [3H]CQ (% PfCRTDd2 control), trans-stimulation, PfNT1: mean ± SEM, SEM
T2 construct: expressed in transfected cells; host or cells: Xenopus laevis oocytes (stage V-VI), cRNA-injected
How it was run: as §1

[6] = molecular target: T1, PfCRT^3D7; test: cell-based; type: cell-based; details: for Uptake of [3H]CQ (% PfCRT3D7 control), trans-stimulation / PfCRT-mediated [3H]CQ transport, trans-stimulation (% PfCRT3D7 control): PfCRT3D7 oocytes; for Uptake of [3H]CQ (% PfCRT3D7 control), trans-stimulation / Uptake of [3H]CQ (% PfCRTDd2 control), trans-stimulation, PfCRT3D7: total [3H]CQ transport; for Uptake of [3H]CQ (% PfCRT3D7 control), trans-stimulation: normalised to the oocyte type control; for PfCRT-mediated [3H]CQ transport, trans-stimulation (% PfCRT3D7 control): normalised to oocyte type control; for Uptake of [3H]CQ (% PfCRTDd2 control), trans-stimulation, PfCRT3D7: mean ± SEM, SEM
How it was run: as §1

[7] = molecular target: PfCRT^Ecu1110 (Plasmodium falciparum, UniProt Q9N623, A220S/I356L/K76T/N326D); test: cell-based; type: cell-based; details: PfCRTEcu1110 oocytes, total [3H]CQ transport, normalised to the oocyte type control
How it was run: as §1

[8] = [test solute]i = 45 mM (30 mM for some solutes due to solubility)
[9] = [test solute]i = 5 mM (intracellular)
[10] = [test solute]i = 45 mM (intracellular; 30 mM for some solutes due to solubility)

Sequence of PfCRT^Dd2 (Q9N623 whole entry A220S/I356T/K76T/M74I/N326S/N75E/Q271E/R371I): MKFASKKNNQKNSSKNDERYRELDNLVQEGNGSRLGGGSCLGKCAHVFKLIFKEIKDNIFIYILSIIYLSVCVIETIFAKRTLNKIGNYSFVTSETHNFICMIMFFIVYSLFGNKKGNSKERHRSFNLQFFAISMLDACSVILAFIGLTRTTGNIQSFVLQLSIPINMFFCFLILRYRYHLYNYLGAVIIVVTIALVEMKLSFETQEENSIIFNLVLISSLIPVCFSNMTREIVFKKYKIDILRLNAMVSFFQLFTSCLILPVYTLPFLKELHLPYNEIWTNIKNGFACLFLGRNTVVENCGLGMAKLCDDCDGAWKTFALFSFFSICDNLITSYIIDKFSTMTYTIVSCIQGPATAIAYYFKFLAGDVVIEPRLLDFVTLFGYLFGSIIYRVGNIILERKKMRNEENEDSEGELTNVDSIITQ
T1 sequence (Q8IBZ9 59-398): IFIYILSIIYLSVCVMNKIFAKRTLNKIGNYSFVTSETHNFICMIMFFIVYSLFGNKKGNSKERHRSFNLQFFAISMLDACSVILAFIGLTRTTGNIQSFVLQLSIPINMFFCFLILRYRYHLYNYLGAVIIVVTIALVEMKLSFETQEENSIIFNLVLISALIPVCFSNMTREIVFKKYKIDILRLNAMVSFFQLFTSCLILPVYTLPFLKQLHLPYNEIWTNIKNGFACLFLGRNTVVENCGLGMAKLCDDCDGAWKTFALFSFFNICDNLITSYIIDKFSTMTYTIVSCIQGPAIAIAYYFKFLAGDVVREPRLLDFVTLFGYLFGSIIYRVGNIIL
T2 sequence (Q8IDM6 whole entry): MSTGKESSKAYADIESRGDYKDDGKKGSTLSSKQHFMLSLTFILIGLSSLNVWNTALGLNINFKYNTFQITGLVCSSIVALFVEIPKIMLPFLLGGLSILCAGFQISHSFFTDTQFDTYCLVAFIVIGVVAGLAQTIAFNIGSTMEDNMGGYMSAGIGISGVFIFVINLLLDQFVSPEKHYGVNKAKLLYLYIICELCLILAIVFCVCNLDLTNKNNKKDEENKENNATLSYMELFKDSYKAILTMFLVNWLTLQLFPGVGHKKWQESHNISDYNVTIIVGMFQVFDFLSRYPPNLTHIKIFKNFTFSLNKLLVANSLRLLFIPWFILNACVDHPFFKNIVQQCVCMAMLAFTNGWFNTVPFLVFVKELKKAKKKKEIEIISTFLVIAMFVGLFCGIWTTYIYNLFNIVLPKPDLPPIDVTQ
Sequence of PfCRT^Ecu1110 (Q9N623 whole entry A220S/I356L/K76T/N326D): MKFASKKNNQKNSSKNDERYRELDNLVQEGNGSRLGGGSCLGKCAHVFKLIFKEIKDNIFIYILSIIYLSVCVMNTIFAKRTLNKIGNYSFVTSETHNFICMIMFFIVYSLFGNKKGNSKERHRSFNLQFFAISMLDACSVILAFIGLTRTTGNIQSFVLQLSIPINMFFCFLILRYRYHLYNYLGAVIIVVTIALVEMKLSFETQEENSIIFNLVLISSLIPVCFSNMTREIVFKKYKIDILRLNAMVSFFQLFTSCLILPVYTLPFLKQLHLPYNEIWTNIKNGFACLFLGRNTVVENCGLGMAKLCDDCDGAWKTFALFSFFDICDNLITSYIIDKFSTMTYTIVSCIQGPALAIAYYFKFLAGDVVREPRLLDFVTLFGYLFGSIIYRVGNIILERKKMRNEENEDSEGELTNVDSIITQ

Compound: NC(=O)C[C@H](N)C(=O)O [L-asparagine]
- Uptake of [3H]CQ (% PfCRT3D7 control), cis-inhibition ([1]; [test solute] = 0.5 mM): 98 ± 2.4 % PfCRT3D7 control
- Uptake of [3H]CQ (% PfCRT3D7 control), cis-inhibition ([1]; [test solute] = 1 mM): 98 ± 3.5 % PfCRT3D7 control
- Uptake of [3H]CQ (% PfCRT3D7 control), cis-inhibition ([1]; [test solute] = 2 mM): 101 ± 4.7 % PfCRT3D7 control
- Uptake of [3H]CQ (% PfCRTDd2 control), cis-inhibition, PfCRT3D7 ([1]; [test solute] = 0.5 mM): 2.6 ± 0.04 % PfCRTDd2 control
- Uptake of [3H]CQ (% PfCRTDd2 control), cis-inhibition, PfCRT3D7 ([1]; [test solute] = 1 mM): 2.2 ± 0.03 % PfCRTDd2 control
- Uptake of [3H]CQ (% PfCRTDd2 control), cis-inhibition, PfCRT3D7 ([1]; [test solute] = 2 mM): 3.4 ± 0.07 % PfCRTDd2 control
- Tested as potential co-substrate but not required for influx of VF-6 via PfCRT into the oocyte [2]: X
- Uptake of [3H]CQ (% non-expressing oocyte control), trans-stimulation ([3]; [test solute]i = 5 mM): 100 ± 3.7 % non-expressing oocyte control
- Uptake of [3H]CQ (% non-expressing oocyte control), trans-stimulation [3, 8]: 99 ± 3.0 % non-expressing oocyte control
- Uptake of [3H]CQ (% PfCRTDd2 control), trans-stimulation, non-expressing oocytes [3, 9]: 3.2 ± 0.02 % PfCRTDd2 control
- Uptake of [3H]CQ (% PfCRTDd2 control), trans-stimulation, non-expressing oocytes [3, 10]: 2.4 ± 0.02 % PfCRTDd2 control
- Uptake of [3H]CQ (% PfCRTDd2 control), trans-stimulation ([4]; [test solute]i = 5 mM): 101 ± 3.1 % PfCRTDd2 control
- Uptake of [3H]CQ (% PfCRTDd2 control), trans-stimulation [4, 8]: 98 ± 2.4 % PfCRTDd2 control
- PfCRT-mediated [3H]CQ transport, trans-stimulation (% PfCRTDd2 control) [4, 9]: 99 ± 2.4 % PfCRTDd2 control
- PfCRT-mediated [3H]CQ transport, trans-stimulation (% PfCRTDd2 control) [4, 10]: 96 ± 3.2 % PfCRTDd2 control
- Uptake of [3H]CQ (% PfCRTDd2 control), trans-stimulation, PfCRTDd2 [4, 9]: 101 ± 3.1 % PfCRTDd2 control
- Uptake of [3H]CQ (% PfCRTDd2 control), trans-stimulation, PfCRTDd2 [4, 10]: 98 ± 2.4 % PfCRTDd2 control
- [3H]CQ transport (% PfCRTDd2 control), trans-stimulation, PfCRTDd2 ([4]; [test solute]i = 5 mM (injected)): 99 ± 2.4 % PfCRTDd2 control
- [3H]CQ transport (% PfCRTDd2 control), trans-stimulation, PfCRTDd2 [4, 8]: 96 ± 3.2 % PfCRTDd2 control
- Uptake of [3H]CQ (% PfNT1 control), trans-stimulation ([5]; [test solute]i = 5 mM): 100 ± 2.5 % PfNT1 control
- Uptake of [3H]CQ (% PfNT1 control), trans-stimulation [5, 8]: 99 ± 3.6 % PfNT1 control
- Uptake of [3H]CQ (% PfCRTDd2 control), trans-stimulation, PfNT1 [5, 9]: 2.8 ± 0.04 % PfCRTDd2 control
- Uptake of [3H]CQ (% PfCRTDd2 control), trans-stimulation, PfNT1 [5, 10]: 3.1 ± 0.06 % PfCRTDd2 control
- Uptake of [3H]CQ (% PfCRT3D7 control), trans-stimulation ([6]; [test solute]i = 5 mM): 100 ± 4.2 % PfCRT3D7 control
- Uptake of [3H]CQ (% PfCRT3D7 control), trans-stimulation [6, 8]: 100 ± 3.7 % PfCRT3D7 control
- PfCRT-mediated [3H]CQ transport, trans-stimulation (% PfCRT3D7 control) [6, 9]: 98 ± 3.6 % PfCRT3D7 control
- PfCRT-mediated [3H]CQ transport, trans-stimulation (% PfCRT3D7 control) [6, 10]: 98 ± 2.8 % PfCRT3D7 control
- Uptake of [3H]CQ (% PfCRTDd2 control), trans-stimulation, PfCRT3D7 [6, 9]: 3.3 ± 0.01 % PfCRTDd2 control
- Uptake of [3H]CQ (% PfCRTDd2 control), trans-stimulation, PfCRT3D7 [6, 10]: 3.3 ± 0.04 % PfCRTDd2 control
- Uptake of [3H]CQ (% PfCRTEcu1110 control), trans-stimulation ([7]; [test solute]i = 5 mM): 98 ± 4.1 % PfCRTEcu1110 control
- Uptake of [3H]CQ (% PfCRTEcu1110 control), trans-stimulation [7, 8]: 98 ± 3.2 % PfCRTEcu1110 control
